Reference: patent US20250188492A1, “Enhanced Transfer of Genetic Instructions to Effector Immune Cells” (Janssen Biotech, Inc., priority 2022, published 2025)

Assays:
Type in all cases: cell-based
[1] = tested on: primary γδ T cells; assay: Frequency of Vγ9Vδ2 subset of primary γδ T cells pre-treated with statin (flow cytometry); details: different concentrations, compared to lentiviral vector only at 0 statin concentration, FIGS. 11A-11B
Method: Next, the effect of pre-treatment with statin in lentiviral transduction of primary γδ T cells on the frequency of Vγ9Vδ2 T cell subset within the γδ T cells was evaluated. Three primary γδ T cells samples from healthy donors were expanded with Zol for five days, pre-treated in the presence or absence of Rosuvastatin or Atorvastatin at different concentrations, as described above, and evaluated for Vγ9Vδ2 expression, using flow cytometry.

[2] = tested on: LDLR; assay: LDLR expression of primary γδ T cells pre-treated with statin; details: different concentrations, compared to lentiviral vector only-transduced cells, FIGS. 10A-10B
Method: Next, the effect of pre-treatment with statin in lentiviral transduction of primary γδ T cells on LDLR expression was evaluated. Three primary γδ T cells samples from healthy donors were expanded with Zol for five days, pre-treated in the presence or absence of Rosuvastatin and Atorvastatin at different concentrations, as described above, and evaluated for LDLR expression.

[3] = tested on: primary NK cells; assay: Surface CAR expression of primary NK cells transduced with Antigen-1 CAR lentivirus with or without PDK1 inhibitor (flow cytometry); details: BX795 0.5 to 7.5 μM, compared to cells transduced without BX795, n=2, FIGS. 2B-2C
Method: NK cells were first activated in preparation of the transduction. One day 0, 0.5-1×10^6 NK cells per well were distributed in a 24-well plate.
Loaded Anti-Biotin MACSiBead particles (Miltenyi Biotech, Cat #130-094-483) for NK cell activation were resuspended thoroughly and were transferred to a suitable tube at the amount of 5 μL (5×10^5 loaded Anti-Biotin MACSiBead particles) per 1×10^6 NK cells. 100 μL culture medium was added to the loaded Anti-Biotin MACSiBead particles. The mixture was centrifuged at 300×g for 5 minutes so that the beads were washed prior to being added to the plated NK cells. […]
Lentiviral transduction was performed on day 5 or 6. […] The amount of virus needed for transducing cells was determined based on desired multiplicity of infection (MOI). […]
Cells were monitored as early as day 3-4 post transduction for surface CAR expression. The cell number of NK cells was determined. […] The CAR expression on NK cells was then measured using flow cytometry analysis.
To test whether PDK1 inhibitors can improve CAR transduction efficiency or surface CAR stability, primary NK cells were activated and transduced with a Antigen-1 CAR in the presence or absence of an PDK1 inhibitor, BX795 (InvivoGen, cat #tlrl-bx7), at concentrations varying from 0.5 to 7.5 μM. […] Surface CAR expression was monitored at regular intervals using an anti-myc tag AF647 antibody (Cell Signaling, Cat #2233, 1:200).

[4] = tested on: primary NK cells; assay: Antigen-2 CAR expression of primary NK cells transduced after statin pre-treatment; details: primary NK cells pre-treated with 5 μM, MOI of 5, FIG. 3B
Method: Lentiviral transduction was performed on day 5 or 6. NK cells were resuspended to determine if cell number had changed from day 0. Lentiviral particles were thawed on ice. Once thawed, lentiviral particles were taken out from ice and equilibrated to room temperature before being added to the activated NK cells. The amount of virus needed for transducing cells was determined based on desired multiplicity of infection (MOI). Once the NK cells were transduced with lentiviral particles, they were returned to the incubator at 37° C. and 5% CO2.
Cells were monitored as early as day 3-4 post transduction for surface CAR expression. The cell number of NK cells was determined. 1×10^5 NK cells were collected from each sample and transferred into wells of a microtiter plate. The cells in each well of the microtiter plate were washed twice with 200 μL FACS Buffer each time. The wells were stained with 100 μL staining buffer containing appropriate CAR detection antibodies. The plate was incubated for at least 30 minutes at 4° C. without light. The cells were then washed twice with 150 μL FACS Buffer each time and were centrifuged at 400×g for 4 minutes at room temperature. The CAR expression on NK cells was then measured using flow cytometry analysis. […]

[5] = tested on: low-density lipoprotein receptor (LDLR); assay: LDLR expression on primary NK cells after statin pre-treatment during activation; details: 5 μM during activation, DMSO negative control, n=3, FIG. 3A
Method: To test whether statins can improve CAR transduction efficiency or surface CAR stability, cells were pre-treated with 5 μM Rosuvastatin (Cayman Chemical, cat #12029) during the activation prior to the transduction. Then, activated primary NK cells were transduced with a Antigen-2 CAR at MOI of 5. Cells pre-treated with DMSO were included as a negative control.

SMILES	frequency of Vγ9Vδ2 cells [1]	LDLR expression [2]	surface CAR stability [3]	Antigen-2 CAR expression [4]	LDLR expression on the cells [5]
CC(C)c1c(C(=O)Nc2ccccc2)c(-c2ccccc2)c(-c2ccc(F)cc2)n1CC[C@@H](O)C[C@@H](O)CC(=O)O [Atorvastatin]	did not change the frequency of Vγ9Vδ2 cells	increased the LDLR expression			
O=C(NCCCNc1nc(Nc2cccc(NC(=O)N3CCCC3)c2)ncc1I)c1cccs1 [BX795]			improved surface CAR stability in a dose dependent manner		
CC(C)c1nc(N(C)S(C)(=O)=O)nc(-c2ccc(F)cc2)c1/C=C/[C@@H](O)C[C@@H](O)CC(=O)O [Rosuvastatin]	did not change the frequency of Vγ9Vδ2 cells	increased the LDLR expression		increased Antigen-2 CAR expression	increased levels of LDLR expression
